From patent publication US11192860B2, “Co-crystal of an orally available HIF prolyl hydroxylase inhibitor” (Sandoz AG, priority 2017, dated 2021)

Experiments:
[1] = Powder dissolution in phosphate buffer pH 6 at 25° C., concentration by HPLC; type: physicochemical; conditions: phosphate buffer pH 6, 25° C.
Experimental: Powder dissolution experiments were carried out in phosphate buffer pH 6 at 25° C. for form A of roxadustat and the L-proline co-crystal of the present invention. The respective concentrations were determined by HPLC at a wavelength of 254 nm.

[2] = Stability against mechanical stress (dry grinding, PXRD); type: physicochemical; conditions: dry ground 20 minutes, 25 vibrations per second
Experimental: A 1.5 mL grinding jar with one ball (5 mm diameter) both made of stainless steel was fed with about 70 mg sample and ground for 20 minutes at a frequency of 25 vibrations per second.

[3] = Stability against pressure (IR press, PXRD); type: physicochemical; conditions: pressed to a pellet at about 100 kN, ground again
From the text: The pellet was ground again in order to obtain a powder, which was then investigated by PXRD.

[4] = Thermogravimetric analysis (mass loss on heating); type: physicochemical; conditions: 10 K/min
Experimental: The sample (16.28 mg) was heated in a 100 microliter aluminum pan closed with an aluminum lid. The lid was automatically pierced at the beginning of the measurement. The sample was heated from 25 to 250° C. at a rate of 10 K/min. Nitrogen (purge rate 50 mL/min) was used as purge gas.
For example mass losses of only about 0.1 weight % up to a temperature of about 180° C., about 0.2 weight % up to a temperature of about 190° C. and about 0.3 weight % up to a temperature of about 200° C. were observed, which further proves the presence of an anhydrous and non-solvated co-crystal.

[5] = Differential scanning calorimetry (thermal stability); type: physicochemical; conditions: 25 to 250° C. at 10 K/min
Experimental: The roxadustat L-proline co-crystal according to the present invention was investigated by DSC, which was performed on a Mettler Polymer DSC R instrument. The sample (2.72 mg) was heated in a 40 microliter aluminium pan with a pierced aluminium lid from 25 to 250° C. at a rate of 10 K/min. Nitrogen (purge rate 50 mL/min) was used as purge gas.

[6] = Stability against temperature and moisture (40° C., 75% RH, PXRD); type: physicochemical; conditions: 75% relative humidity, 7 days
[7] = FIGS. 4, 6 and 8 of WO 2014/014835 A2; cited from earlier work
[8] = TGA curves of WO 2014/014835 A2; cited from earlier work

For Cc1nc(C(=O)NCC(=O)O)c(O)c2ccc(Oc3ccccc3)cc12 [roxadustat L-proline co-crystal], the “time after which the complex falls apart in aqueous solution into its pure components” value [1] was “about 5 minutes”, the “Concentration roxadustat (dissolution profile)” value (from here on “Concentration roxadustat”) ([1]; 1 min, listed as roxadustat L-prolin co-crystal) was 660 µg/mL and the “Concentration roxadustat” value ([1]; 5 min, listed as roxadustat L-prolin co-crystal) was 30 µg/mL. The “Concentration roxadustat” value ([1]; 15 min, listed as roxadustat L-prolin co-crystal) was 20 µg/mL, the “Concentration roxadustat” value ([1]; 30 min, listed as roxadustat L-prolin co-crystal) was 40 µg/mL and the “Concentration roxadustat” value ([1]; 60 min, listed as roxadustat L-prolin co-crystal) was 100 µg/mL. For the same compound, the “Concentration roxadustat” value ([1]; 180 min, listed as roxadustat L-prolin co-crystal) was 90 µg/mL, the “phase changes according to powder X-ray diffraction” value [2] was “no phase changes occured” and the “phase changes according to powder X-ray diffraction” value [3] was “no phase changes occured”. For the same compound, the TGA mass loss ([4]; up to about 180° C.) was “about 0.1 weight %”, the TGA mass loss ([4]; up to about 190° C.) was “about 0.2 weight %” and the TGA mass loss ([4]; up to about 200° C.) was “about 0.3 weight %”. The “thermal events in DSC until melting” value [5] was “neither phase changes nor desolvation events are detectable until the sample melts” and the “phase changes according to powder X-ray diffraction” value [6] was “no phase changes occurred”.
In the case of Cc1nc(C(=O)NCC(=O)O)c(O)c2ccc(Oc3ccccc3)cc12 [roxadustat form A, [(4-hydroxy-1-methyl-7-phenoxyisoquinoline-3-carbonyl)amino]acetic acid, reference compound], the “Concentration roxadustat” value ([1]; 1 min) was 30 µg/mL, the “Concentration roxadustat” value ([1]; 5 min) was 50 µg/mL and the “Concentration roxadustat” value ([1]; 15 min) was 60 µg/mL. The “Concentration roxadustat” value ([1]; 30 min) was 50 µg/mL, the “Concentration roxadustat” value ([1]; 60 min) was 60 µg/mL and the “Concentration roxadustat” value ([1]; 180 min) was 70 µg/mL.
In the case of Cc1nc(C(=O)NCC(=O)O)c(O)c2ccc(Oc3ccccc3)cc12.Cc1nc(C(=O)NCC(=O)O)c(O)c2ccc(Oc3ccccc3)cc12.O [form B], the “phase transformation during DSC experiments” value [7] is listed as “at least partially transform to form A” and the “solvent/water loss upon heating (TGA)” value [8] is listed as “readily lose their solvents/water upon heating”.
